According to patent publication US20250197372A1 (priority 2020, published 2025):

Legend:
[1] = biological target: recombinant human GAA (acid alpha-glucosidase) (Homo sapiens, UniProt P10253); test: Acid alpha-glucosidase (GAA) assay (4-methylumbelliferyl-alpha-D-pyranoside substrate, fluorescence); assay type: biochemical
Method in brief: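 Recombinant human enzyme preincubated 60 min at 37 °C with compound dilutions, then 4-methylumbelliferyl-alpha-D-pyranoside substrate added for 20 min at 37 °C. Stopped with glycine/NaOH pH 10; methylumbelliferone fluorescence (ex 365, em 440 nm) versus untreated enzyme; IC50 by 4-PL fit.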

[2] = biological target: T1, recombinant human GBA (beta-glucocerebrosidase) (Homo sapiens, UniProt P04062); test: Beta-glucocerebrosidase (GBA, glucosylceramidase) assay (4-methylumbelliferyl-beta-D-pyranoside substrate, fluorescence); assay type: biochemical
T1 sequence (P04062 40-536): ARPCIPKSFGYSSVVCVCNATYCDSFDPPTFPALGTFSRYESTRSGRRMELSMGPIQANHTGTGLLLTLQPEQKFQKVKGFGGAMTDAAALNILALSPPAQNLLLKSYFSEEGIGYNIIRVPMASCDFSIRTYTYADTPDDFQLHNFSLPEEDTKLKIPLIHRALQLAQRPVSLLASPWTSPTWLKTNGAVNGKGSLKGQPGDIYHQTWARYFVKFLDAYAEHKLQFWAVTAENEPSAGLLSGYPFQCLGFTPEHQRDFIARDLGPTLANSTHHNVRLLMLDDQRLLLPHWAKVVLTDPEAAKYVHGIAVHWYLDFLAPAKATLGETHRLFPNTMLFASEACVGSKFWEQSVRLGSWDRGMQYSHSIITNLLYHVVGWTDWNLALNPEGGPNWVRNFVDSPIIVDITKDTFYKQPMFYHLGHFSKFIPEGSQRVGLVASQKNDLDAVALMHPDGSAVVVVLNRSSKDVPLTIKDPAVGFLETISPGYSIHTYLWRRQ
Method in brief: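 Recombinant human GBA preincubated with compound dilutions 60 min at 37 °C, then 4-methylumbelliferyl-beta-D-pyranoside added for 60 min at 37 °C. Stopped at pH 10 (glycine/NaOH); fluorescence ex 365/em 440 nm. IC50 from 4-PL fit of inhibition relative to untreated enzyme.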

SMILES | IC50 [1] | IC50 [2]
OC[C@@H]1[C@@H](O)[C@H](O)[C@@H](O)CN1Cc1cccc(CNc2ccc(C3=COCCO3)cc2)c1 [Compound 1066, (2R,3R,4R,5S)-1-{[3-({[4-(5,6-dihydro-1,4-dioxin-2-yl)phenyl]amino}methyl)phenyl]methyl}-2-(hydroxymethyl)piperidine-3,4,5-triol] | 1.06 µM | > 100 µM
COc1cc(Br)cc(NCCn2cc(CCN3C[C@H](O)[C@@H](O)[C@H](O)[C@H]3CO)c3ccccc32)c1 [Compound 1075, (2R,3R,4R,5S)-1-[2-(1-{2-[(3-bromo-5-methoxyphenyl)amino]ethyl}-1H-indol-3-yl)ethyl]-2-(hydroxymethyl)piperidine-3,4,5-triol] | 3.73 µM | 2.52 µM
OC[C@@H]1[C@@H](O)[C@H](O)[C@@H](O)CN1CCc1cn(CCNc2ccccc2)c2ccccc12 [Compound 1076, (2R,3R,4R,5S)-2-(hydroxymethyl)-1-(2-{1-[2-(phenylamino)ethyl]-1H-indol-3-yl}ethyl)piperidine-3,4,5-triol] | 4.26 µM | 7.81 µM
CC(C)c1cc(CCNc2ccc(N=[N+]=[N-])cc2[N+](=O)[O-])cc(CCN2C[C@H](O)[C@@H](O)[C@H](O)[C@H]2CO)c1 [Compound 1077, (2R,3R,4R,5S)-1-[2-(3-{2-[(4-azido-2-nitrophenyl)amino]ethyl}-5-(propan-2-yl)phenyl)ethyl]-2-(hydroxymethyl)piperidine-3,4,5-triol] | 10 µM | 0.379 µM
O=[N+]([O-])c1cc(-c2ncc[nH]2)ccc1NCCc1ccc(CCN2C[C@H](O)[C@@H](O)[C@H](O)[C@H]2CO)cc1 [Compound 1078, (2R,3R,4R,5S)-2-(hydroxymethyl)-1-{2-[4-(2-{[4-(1H-imidazol-2-yl)-2-nitrophenyl]amino}ethyl)phenyl]ethyl}piperidine-3,4,5-triol] | 0.343 µM | 6.97 µM
OC[C@@H]1[C@@H](O)[C@H](O)[C@@H](O)CN1Cc1cccc(CNc2ccc(N3CCOCC3)cc2)c1 [Compound 1081, (2R,3R,4R,5S)-2-(hydroxymethyl)-1-{[3-({[4-(morpholin-4-yl)phenyl]amino}methyl)phenyl]methyl}piperidine-3,4,5-triol] | 1.27 µM | > 100 µM
OC[C@@H]1[C@@H](O)[C@H](O)[C@@H](O)CN1Cc1cccc(CNc2ccc(-c3ccc[nH]3)cc2)c1 [Compound 1082, (2R,3R,4R,5S)-2-(hydroxymethyl)-1-{[3-({[4-(1H-pyrrol-2-yl)phenyl]amino}methyl)phenyl]methyl}piperidine-3,4,5-triol] | 0.872 µM | 13.8 µM
OC[C@@H]1[C@@H](O)[C@H](O)[C@@H](O)CN1Cc1cccc(CNc2ccc(-c3cccnn3)cc2)c1 [Compound 1083, (2R,3R,4R,5S)-2-(hydroxymethyl)-1-{[3-({[4-(pyridazin-3-yl)phenyl]amino}methyl)phenyl]methyl}piperidine-3,4,5-triol] | 1.95 µM | > 100 µM
OC[C@@H]1[C@@H](O)[C@H](O)[C@@H](O)CN1Cc1cccc(CNc2ccc(-c3ncccn3)cc2)c1 [Compound 1084, (2R,3R,4R,5S)-2-(hydroxymethyl)-1-{[3-({[4-(pyrimidin-2-yl)phenyl]amino}methyl)phenyl]methyl}piperidine-3,4,5-triol] | 2.35 µM | > 100 µM
O=[N+]([O-])c1cc(CN2CCCO2)ccc1NCc1cccc(CN2C[C@H](O)[C@@H](O)[C@H](O)[C@H]2CO)c1 [Compound 1086] | 0.976 µM | > 100 µM
O=[N+]([O-])c1cc(C2=COCCO2)ccc1NCc1cccc(CN2C[C@H](O)[C@@H](O)[C@H](O)[C@H]2CO)c1 [Compound 1087, (2R,3R,4R,5S)-1-{[3-({[4-(5,6-dihydro-1,4-dioxin-2-yl)-2-nitro-phenyl]amino}methyl)phenyl]methyl}-2-(hydroxymethyl)piperidine-3,4,5-triol] | 0.554 µM | > 100 µM
O=[N+]([O-])c1cc(-c2ccc[nH]2)ccc1NCc1cccc(CN2C[C@H](O)[C@@H](O)[C@H](O)[C@H]2CO)c1 [Compound 1088, (2R,3R,4R,5S)-2-(hydroxymethyl)-1-{[3-({[2-nitro-4-(1H-pyrrol-2-yl)phenyl]amino}methyl)phenyl]methyl}piperidine-3,4,5-triol] | 1.95 µM | 68.4 µM
O=[N+]([O-])c1cc(-c2cccnn2)ccc1NCc1cccc(CN2C[C@H](O)[C@@H](O)[C@H](O)[C@H]2CO)c1 [Compound 1089, (2R,3R,4R,5S)-2-(hydroxymethyl)-1-{[3-({[2-nitro-4-(pyridazin-3-yl)phenyl]amino}methyl)phenyl]methyl}piperidine-3,4,5-triol] | 0.572 µM | 97.1 µM
O=[N+]([O-])c1cc(-c2ncccn2)ccc1NCc1cccc(CN2C[C@H](O)[C@@H](O)[C@H](O)[C@H]2CO)c1 [Compound 1090, (2R,3R,4R,5S)-2-(hydroxymethyl)-1-{[3-({[2-nitro-4-(pyrimidin-2-yl)phenyl]amino}methyl)phenyl]methyl}piperidine-3,4,5-triol] | 0.509 µM | 32.4 µM
OC[C@@H]1[C@@H](O)[C@H](O)[C@@H](O)CN1Cc1ccc(CNc2ccc(CN3CCCO3)cc2)cc1 [Compound 1092, (2R,3R,4R,5S)-2-(hydroxymethyl)-1-({4-[({4-[(1,2-oxazolidin-2-yl)methyl]phenyl}amino)methyl]phenyl}methyl)piperidine-3,4,5-triol] | 0.786 µM | 121 µM
OC[C@@H]1[C@@H](O)[C@H](O)[C@@H](O)CN1Cc1ccc(CNc2ccc(C3=COCCO3)cc2)cc1 [Compound 1093, (2R,3R,4R,5S)-1-{[4-({[4-(5,6-dihydro-1,4-dioxin-2-yl)phenyl]amino}methyl)phenyl]methyl}-2-(hydroxymethyl)piperidine-3,4,5-triol] | 0.108 µM | 7.48 µM
OC[C@@H]1[C@@H](O)[C@H](O)[C@@H](O)CN1Cc1ccc(CNc2ccc(-c3ccc[nH]3)cc2)cc1 [Compound 1094, (2R,3R,4R,5S)-2-(hydroxymethyl)-1-{[4-({[4-(1H-pyrrol-2-yl)phenyl]amino}methyl)phenyl]methyl}piperidine-3,4,5-triol] | 0.246 µM | 12.3 µM
OC[C@@H]1[C@@H](O)[C@H](O)[C@@H](O)CN1Cc1ccc(CNc2ccc(-c3ncccn3)cc2)cc1 [Compound 1096, (2R,3R,4R,5S)-2-(hydroxymethyl)-1-{[4-({[4-(pyrimidin-2-yl)phenyl]amino}methyl)phenyl]methyl}piperidine-3,4,5-triol] | 0.259 µM | 17.6 µM
O=[N+]([O-])c1cc(C2=COCCO2)ccc1NCc1ccc(CN2C[C@H](O)[C@@H](O)[C@H](O)[C@H]2CO)cc1 [Compound 1099, (2R,3R,4R,5S)-1-{[4-({[4-(5,6-dihydro-1,4-dioxin-2-yl)-2-nitrophenyl]amino}methyl)phenyl]methyl}-2-(hydroxymethyl)piperidine-3,4,5-triol] | < 0.001 µM | 37.1 µM
O=[N+]([O-])c1cc(-c2ccc[nH]2)ccc1NCc1ccc(CN2C[C@H](O)[C@@H](O)[C@H](O)[C@H]2CO)cc1 [Compound 1100, (2R,3R,4R,5S)-2-(hydroxymethyl)-1-{[4-({[2-nitro-4-(1H-pyrrol-2-yl)phenyl]amino}methyl)phenyl]methyl}piperidine-3,4,5-triol] | 0.161 µM | 41.7 µM
O=[N+]([O-])c1cc(-c2cccnn2)ccc1NCc1ccc(CN2C[C@H](O)[C@@H](O)[C@H](O)[C@H]2CO)cc1 [Compound 1101, (2R,3R,4R,5S)-2-(hydroxymethyl)-1-{[4-({[2-nitro-4-(pyridazin-3-yl)phenyl]amino}methyl)phenyl]methyl}piperidine-3,4,5-triol] | 0.025 µM | 32.7 µM
O=[N+]([O-])c1cc(-c2ncccn2)ccc1NCc1ccc(CN2C[C@H](O)[C@@H](O)[C@H](O)[C@H]2CO)cc1 [Compound 1102, (2R,3R,4R,5S)-2-(hydroxymethyl)-1-{[4-({[2-nitro-4-(pyrimidin-2-yl)phenyl]amino}methyl)phenyl]methyl}piperidine-3,4,5-triol] | 0.028 µM | 28.7 µM
[N-]=[N+]=Nc1ccc(NCCC23CC(CCN4C[C@H](O)[C@@H](O)[C@H](O)[C@H]4CO)(C2)C3)c([N+](=O)[O-])c1 [Compound 1103, (2R,3R,4R,5S)-1-[2-(3-{2-[(4-azido-2-nitrophenyl)amino]ethyl}bicyclo[1.1.1]pentan-1-yl)ethyl]-2-(hydroxymethyl)piperidine-3,4,5-triol] | 2.66 µM | 11.9 µM
[N-]=[N+]=Nc1ccc(NCc2ccc(Cc3ccc(CN4C[C@H](O)[C@@H](O)[C@H](O)[C@H]4CO)cc3)cc2)c([N+](=O)[O-])c1 [Compound 1105, (2R,3R,4R,5S)-1-({4-[(4-{[(4-azido-2-nitrophenyl)amino]methyl}phenyl)methyl]phenyl}methyl)-2-(hydroxymethyl)piperidine-3,4,5-triol] | 0.06 µM | 9.09 µM
